Test results from PMC10589072, “Evaluation of Potential Peptide-Based Inhibitors against SARS-CoV-2 and Variants of Concern” (BioMed Research International, 2023).
Where no end group is shown, it is not given here.

Tests used:
[1] = biological target: T1, SARS-CoV-2 spike S1 protein (Severe acute respiratory syndrome coronavirus 2, UniProt P0DTC2); experiment: biochemical; type: binding
T1 construct: The fluorescent dye NT647 was used to label the SARS-CoV-2 spike S1; purchased Sino Biological 40591-V08H

[2] = tested on: 293T ACE-2 SSC22 cells (HEK 293T expressing ACE2 receptor)
Description: The cytotoxicity of the peptides was assessed using a viability assay. […] Cells with peptides were cultured for 3 days, after which cell viability was measured using an ATP assay (Promega, G9681).

IDWQFWFHYDKWDHEWEDEWYQSS-NH2 [Peptide P25]
KD compared with ACE2-S protein affinity [1]: comparable to the observed affinity between the S protein and ACE2
Kd ([1]; 21°C, read-out: KD (constant of dissociation)): 42.2 nM
cytotoxicity ([2]; 0.125 to 4 mM, 72 hours, ATP assay, n = 3): low toxicity
cell viability ([2]; 72 h, 4 mM): 91-100%
